Measurements as given in a melting point compilation (Tetko et al.; mined from patent text by program, amines drawn as free bases though some values may be those of a salt).

Row | melting point | Compound
1 | 161 °C | c1ccc(Nc2ncnc3cnccc23)cc1
2 | 31 to 32.5 °C | CCCCCOc1ccc(C=O)cc1OCCCCC
3 | 278 to 279 °C | CC(C)c1cc(C(=O)Nc2ccc(C(=O)O)cn2)oc1C(C)C
4 | 113 to 114 °C | CS(=O)(=O)c1ccc(-c2cnn(CC(F)(F)F)c(=O)c2OC2CCc3ccccc32)cc1 (configuration not stated)
5 | 159 to 160 °C | COc1ccc(-c2ccc3c(c2)CCc2nn(-c4ccccn4)c(O)c2-3)cc1
6 | 205 to 207 °C | Cc1nc(N2CCN(Cc3ccc(F)cc3)C2=O)sc1C(=O)NCc1ncccn1
7 | > 260 °C | CCOC(=O)c1cnc2ccc(C(F)(F)F)cc2c1O
8 | 207 to 208 °C | Nc1c(C(=O)O)ccc(F)c1F
9 | 157 to 158 °C | O=c1[nH]c(=O)n(C2CC(OCc3ccccc3)C(CO)O2)cc1C(F)(F)F (configuration not stated)
10 | 255 to 257 °C | CCOc1ccc(C(=O)C2=C(O)C(=O)N(c3ccc(C)nn3)C2c2ccc(OC(F)(F)F)cc2)cc1 (configuration not stated)
11 | 135 to 137 °C | O=C(O)Cc1ccc2c(c1)CCc1ccccc1O2
12 | 201 to 204 °C | O=C(O)Cc1ccc(NC(=O)C(COc2ccccc2)NS(=O)(=O)c2ccc(Br)cc2)cc1 (racemic)
13 | 98 to 100 °C | CC(=O)NC(CCc1ccc(C=O)cc1)(COC(C)=O)COC(C)=O
14 | 109 °C | N#CN=C(NCC(=O)O)Nc1cccc(Cl)c1
15 | 128 to 129 °C | Cc1nn(-c2ccc(C(F)(F)F)cn2)cc1COc1cc(CO)n(C)n1
16 | 96.5 to 98 °C | O=C1c2ccccc2C(=O)N1Cc1noc(CCl)n1
17 | 166 to 168 °C | O=S(=O)(F)c1cc(S(=O)(=O)F)cc(S(=O)(=O)F)c1
18 | 65 °C | CON=C(OC)C(=O)c1ncsc1C
19 | 111 to 113 °C | N#Cc1ccc(-c2ccc(NCCCC3CCCCO3)cc2)cc1 (configuration not stated)
20 | 168 to 170 °C | N#CNc1cc(F)ccc1N1CCOCC1
21 | 150 °C | N#Cc1coc2c(Cl)cc(Cl)cc2c1=O
22 | 114 to 115 °C | CCCCCCCCCCCCS(=O)(=O)C(C#N)=C1C=C(N2CCCC2)CC(C)(C)C1
23 | 165 to 168 °C | CCn1c(CC(=O)NOCc2ccccc2)nc2cc(F)c(N3CCN(C)CC3)cc21
24 | 73 to 76 °C | O=C(OCc1cc(F)nc(F)c1F)c1ccccc1
25 | 176 to 179 °C | COCCOc1ccc(OCC(O)CNCCOc2cccc(O)c2C(N)=O)cc1 (configuration not stated)

Row | melting point | Compound
26 | 146 to 147 °C | CCN(CC)CCOC1c2ccccc2C(=O)N1c1ccccc1 (configuration not stated)
27 | > 300 °C | COc1ccc(-c2nc(N3CCOCC3)c3sc(NS(=O)(=O)c4cccc(/C=C/C(=O)NO)c4)cc3n2)cn1
28 | 80 °C | Cc1cc(-n2ccnc2)c2cccc(OCc3c(Cl)ccc(S(=O)(=O)N4CCC[C@H]4C(=O)NCCCN(C)C)c3Cl)c2n1
29 | 175 to 177 °C | N=c1n(Cc2ccc(Cl)cc2)c2ccc(Cl)cc2n1Cc1ccc(Cl)cc1
30 | 45 to 47 °C | COC(=O)c1cccc2cc(-c3ccccc3)oc12
31 | 141 to 153 °C | O=C(c1ccc(Cn2ccc3ccccc32)cc1)N1CCC(N2CCCC2)C1 (configuration not stated)
32 | 61 to 62 °C | CCOC(=O)c1cnc(-c2cccs2)s1
33 | 189 to 190 °C | NS(=O)(=O)c1ccc(S(=O)(=O)N2CCc3cccc(-c4ccc(F)cc4)c32)cc1
34 | 195 to 197 °C | CS(=O)(=O)c1ccc(-c2nc(C(F)(F)F)nc(Cl)c2-c2ccc(F)cc2)cc1
35 | 180 °C | CCOc1cc(NCCO)c([N+](=O)[O-])cc1O
36 | 148 to 151 °C | O=c1c2c(Cl)cc(Cl)cc2n(Cc2ccccc2)c(=O)n1Cc1ccc(F)cc1
37 | 144 to 145 °C | CCS(=O)(=O)c1ccc(C(CC2CCCC2)C(=O)Nc2ccccn2)cc1 (configuration not stated)
38 | 184 to 185 °C | CCCn1c(=O)cc(NNC(=S)NC(C)=O)n(Cc2ccccc2)c1=O
39 | 100 to 102 °C | Cc1ccc(Cl)cc1NC(=O)OC(C)(C)C
40 | 154 to 155 °C | Cc1noc(NS(=O)(=O)c2ccccc2-c2ccccc2)c1C
41 | 127 to 128 °C | CCCCCCCC[C@H](N[C@@H](C)C(=O)O)C(=O)OCC
42 | > 320 °C | O=C(O)Cn1c(=O)c(=O)[nH]c2cc([N+](=O)[O-])ccc21
43 | 180 to 182 °C | CN(C)c1nc(Br)cnc1NS(=O)(=O)c1cccc2c(N(C)C)cccc12
44 | 198 to 202 °C | O=C(Cn1c(-c2ccccc2)ncc(NC(=O)OCc2ccccc2)c1=O)NC(Cc1ccccc1)C(O)C(F)(F)F (configuration not stated)
45 | 132 °C | O=c1ncc(Cl)cn1COCc1cccs1
46 | 326 to 330 °C | O=C(O)c1cc(Sc2nc3cc(Cl)ccc3[nH]2)c2[nH]c(=O)[nH]c2c1
47 | 201 °C | CC1(C)OC(=C(C#N)C#N)C(C#N)=C1c1ccc(C#C[Si](C)(C)C)cc1
48 | 174 to 175 °C | COc1ccc(-c2nc(CNC(=O)C3=NNC(=O)CC3)sc2-c2ccc(OC)cc2)cc1
49 | 216 to 217 °C | O=C(N[C@H](Cc1ccccc1C(F)(F)F)[C@@H](O)c1ccc(F)cc1)C1CCCCC1 (racemic)
50 | 107 to 109 °C | CCCc1c(OCc2c(CCCCc3cccnc3)ccc(C(N)=O)c2OCC)ccc(C(C)=O)c1O

Row | melting point | Compound
51 | 98 to 100 °C | CN(C)Cc1cccc(-c2cc3c4c(ccn4C(=O)CNC3)c2)c1
52 | 89 to 90 °C | CCNc1cn(-c2cccnc2)nc1Cl
53 | 40 to 42 °C | CSc1nc(C)cc(OC(F)F)n1
54 | 295 to 296 °C | O=C1c2cc(Cl)ccc2-n2c1nc1ccccc1c2=O
55 | 263 to 265 °C | CN1CC(=O)Nc2cscc2C1=O
56 | > 300 °C | CNC(=O)Nc1ccc(C(=O)O)cc1
57 | 47 to 49 °C | CCOC(=O)C(NC(=O)OC(C)(C)C)C(c1ccc(O)cc1)S(=O)(=O)C(F)(F)F (configuration not stated)
58 | 86 to 88 °C | CC(C)c1nn(-c2ccccc2)c(-c2ccc(F)cc2)c1CCC=O
59 | 54 °C | C=C1CC(C)(O)CCC2=C(C)CCC12 (configuration not stated)
60 | 159 to 160 °C | CC(=O)N(CC(C)C)C1NC(=O)N(c2ccc(C)cc2)C(=O)N1
61 | 190 to 194 °C | O=C(N[C@H]1CCCNC1=O)c1c(F)cccc1F
62 | 123 to 126 °C | Cc1cccc(NC(=O)NC2N=C(C(C)C)c3ccccc3N(CC(=O)N3CC4CCC(CC4)C3)C2=O)c1 (configuration not stated)
63 | 73.5 to 76 °C | CC(=O)C(=C1SCCCN1C(C)=O)[N+](=O)[O-]
64 | 196 to 197 °C | Cc1nn(-c2cc(Nc3ccc(N)cc3)c(Cl)cc2Cl)c(=O)n1C(F)F
65 | 98 to 100 °C | COc1ccc2c(c1)OC1(O)c3ccccc3C(=O)C21O (configuration not stated)
66 | 254 to 255 °C | O=C1CCC(=O)N1Cc1nc2sc3c(c2c(-c2ccc(Cl)cc2)c1Cl)CCN(Cc1ccccc1)C3
67 | 193 to 196 °C | Cc1ccccc1-c1c2c(cc3ccc(O)cc13)-c1ccc(O)cc1CO2
68 | 234 to 236 °C | Cc1cc(C)c(N2CCCc3c2nn(C)c3N)c(Cl)c1
69 | 142 to 144 °C | O=C(O)C=CCCCc1cccc2cncn12
70 | 299 to 300 °C | O=C1NC(=O)c2ccc(Br)cc2/C1=C/NCc1cccnc1
71 | 285 to 287 °C | O=C(O)c1csc(NC(=O)C(CC2CCCC2)c2ccc(Cl)c(Cl)c2)n1 (configuration not stated)
72 | > 300 °C | O=C(O)c1ccc2oc3ccncc3c(=O)c2c1
73 | 104 to 106 °C | CCCc1ccc(-c2ccn([C@H](CC(=O)O)C(=O)N[C@H](C(=O)NC)C(C)(C)C)c2)cc1
74 | 324 °C | CN(C)c1ccc(C(=O)NN=C2C(=O)Nc3ccc(I)cc32)cc1
75 | 109 to 110 °C | COC(=O)c1ccc(-c2nc(-c3cc(C)sc3C)cs2)cc1

Row | melting point | Compound
76 | 145 to 147 °C | CCOc1nc(C)nc(N2CCc3ccccc3CC2)c1[N+](=O)[O-]
77 | 173 to 175 °C | COc1cc2ncc(C#N)c(Sc3cccc(Br)c3)c2cc1OC
78 | 42 to 43 °C | CCOC(=O)C[C@@H]1c2ccccc2O[C@H]1c1ccccc1 (relative stereo)
79 | 112 to 113 °C | Ic1ccc(C2CCCCO2)cc1-c1cc(C2CCCCO2)ccc1I (configuration not stated)
80 | 74 °C | COc1cc(N)c(OCc2ccccc2)cc1OC
81 | 113 °C | COc1ccc(C=CC(=O)c2c(O)cc(OC)cc2OC(C)C)cc1
82 | 158 to 159 °C | CCC(=C(c1ccc(O)cc1)c1ccc(O)cc1)c1ccc(OCCO)c(OC)c1
83 | 169 to 170 °C | Cc1cc2c(CCl)c(CO)c(Cl)nc2cc1Cl
84 | 84 to 85 °C | CCCCc1nc(C(=O)CC)c(C#N)[nH]1
85 | 141 to 142 °C | CC#CC(C)(C)NC(=O)C(Oc1cc(Cl)nc(Cl)c1)SC (configuration not stated)
86 | 166 to 169 °C | Nc1cnc(N2CCN(CCCC(=O)c3ccc(F)cc3)CC2)cc1N
87 | 73 to 74 °C | C[C@@H]1OC=C[C@H](NC(=O)C(F)(F)F)[C@@]1(O)OC(=O)C(F)(F)F
88 | 98.3 to 98.5 °C | COC(=O)c1ccc(S(C)(=O)=O)cc1N
89 | 124 to 130 °C | O=[N+]([O-])c1nn(-c2c(Cl)cc(C(F)(F)F)cc2Cl)cc1S(=O)C(F)(F)F (configuration not stated)
90 | 110 to 111 °C | CCOC(=O)c1cc(Br)c2oc(C)c(C)c2c1
91 | 71 to 72 °C | CCOC(=O)c1ccc(/C=C(\C)c2ccc3c(c2)OCCCC3)cc1
92 | 68 to 70 °C | CCCCCCCCCCCCCCOc1ccc(C(=O)Cl)cc1OCCCCCCCCCCCCCC
93 | 155 to 157 °C | COc1cc(C(C)=O)ccc1OCCCN1CCN(c2n[nH]c3ccccc23)CC1
94 | 135 to 138 °C | CCCCCCCNC(=O)Nc1ccccc1CNCc1cc(C(C)(C)C)c(O)c(C(C)(C)C)c1
95 | 172 to 173 °C | COCN1C(C)=C(C(=O)O)C(c2ccccc2C(F)(F)F)C(C(=O)O)=C1C
96 | 140 °C | [N-]=[N+]=N[C@@H]1CN2C(=O)N(c3cc(Cl)nc(Cl)c3)C(=O)[C@@]2(Cc2ccc(OC(F)(F)F)cc2)C1
97 | 253 to 260 °C | CCn1cc(C(=O)O)c(=O)c2cc(F)c(N3CCN(O)CC3)c(F)c21

Row | Compound | melting point
98 | CN(C)C1CCc2[nH]c3cccc(F)c3c2C1 (configuration not stated) | 166 to 168 °C
99 | CC(=O)N(C)C(=O)ON=C1SCC(=O)NC1(C)C | 218 to 220 °C
100 | CN1C[C@H](CN2CCC(O)(c3ccc(Cl)cc3)CC2)C=C2c3cccc4[nH]c(Cl)c(c34)C[C@H]21 | > 192 °C
101 | OC(c1ccc(F)cc1)C1CC2CCN1CC2 (configuration not stated) | 69 to 70 °C
102 | COCCNc1ccc(C(=O)c2c(C)n(CCN3CCOCC3)c3ccccc23)cc1 | 121 to 123 °C
